Measured values published in ChEMBL document CHEMBL1201862, “PubChem BioAssay data set” (2004).
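48-hour exposure; five concentrations; linearly interpolated endpoints. Abbreviation: GI50, concentration required for 50% inhibition of growth.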 Active and inactive are the calls of the source. Cut-off read from the data, not from the text of the source: active = GI50 up to about 1.1 µM and inactive = higher.

Columns and labels:
Assay in all cases: NCI-60 cell line screen, 48 h
CCRF-CEM = system: CCRF-CEM
DU-145 = system: DU-145
HOP-92 = system: HOP-92
IGROV-1 = system: IGROV-1
K562 = system: K562
MCF7 = system: MCF7
NCI-H460 = system: NCI-H460
NCI-H522 = system: NCI-H522
OVCAR-5 = system: OVCAR-5
OVCAR-8 = system: OVCAR-8
RPMI-8226 = system: RPMI-8226
SF-295 = system: SF-295
SF-539 = system: SF-539
SK-MEL-28 = system: SK-MEL-28
SK-MEL-5 = system: SK-MEL-5
TK-10 = system: TK-10
MDA-MB-231 = system: MDA-MB-231
MDA-MB-435 = system: MDA-MB-435
A498 = system: A498
Hs-578T = system: Hs-578T

Measured: GI50

Cc1cccc2c1nc1n2C(=O)c2ccccc2-1
inactive: CCRF-CEM > 100 µM | DU-145 > 100 µM | HOP-92 > 100 µM | IGROV-1 > 100 µM | K562 > 100 µM | MCF7 > 100 µM | NCI-H460 > 100 µM | NCI-H522 > 100 µM | OVCAR-5 > 100 µM | OVCAR-8 > 100 µM | RPMI-8226 > 100 µM | SF-295 > 100 µM | SF-539 > 100 µM | SK-MEL-28 > 100 µM | SK-MEL-5 > 100 µM | TK-10 > 100 µM

NC(=O)OCc1c(-c2ccccc2)nn(-c2ccccc2)c1COC(N)=O
inactive: DU-145 > 100 µM | HOP-92 > 100 µM | IGROV-1 > 10 µM | MCF7 > 100 µM | MDA-MB-231 > 100 µM | MDA-MB-435 > 100 µM | NCI-H522 > 100 µM | OVCAR-5 > 100 µM | OVCAR-8 > 100 µM | RPMI-8226 > 100 µM | SF-295 > 100 µM | SF-539 > 100 µM | SK-MEL-28 > 100 µM | SK-MEL-5 > 100 µM | TK-10 > 100 µM

CCOc1ccc(N/C(=C(/C(Cl)=C(/Cl)NC(C)(C)C)[N+](=O)[O-])n2nnc3ccccc32)cc1
inactive: A498 91.6 µM | CCRF-CEM 12.7 µM | Hs-578T 11 µM | K562 > 100 µM | MCF7 26.1 µM | MDA-MB-231 17.9 µM | MDA-MB-435 18.2 µM | NCI-H460 76.9 µM | OVCAR-5 31.6 µM | OVCAR-8 16.6 µM | RPMI-8226 23.9 µM | SF-295 28.1 µM | SF-539 24.1 µM | SK-MEL-28 16.4 µM

CCOC(=O)c1c(NS(=O)(=O)c2ccc(C)cc2)sc2c1CCCC2
inactive: A498 36.1 µM | CCRF-CEM 12.1 µM | DU-145 33.6 µM | Hs-578T 26.9 µM | IGROV-1 27.2 µM | K562 20.6 µM | MCF7 24.4 µM | MDA-MB-231 22.5 µM | NCI-H460 24.3 µM | OVCAR-5 65.3 µM | OVCAR-8 35.7 µM | RPMI-8226 10.2 µM | SF-295 28 µM | SF-539 29.9 µM | SK-MEL-5 31.8 µM | TK-10 28.4 µM

CN(C)CCNC(=O)c1cccc2c(NC(CS)C(=O)O)c3ccccc3nc12 (configuration not stated)
inactive: A498 > 10 µM | CCRF-CEM 6.37 µM | DU-145 10.5 µM | HOP-92 19.9 µM | IGROV-1 4.88 µM | K562 3.79 µM | MCF7 2.95 µM | MDA-MB-231 6.18 µM | MDA-MB-435 4.49 µM | NCI-H460 15 µM | NCI-H522 4.19 µM | OVCAR-5 4.52 µM | OVCAR-8 13.5 µM | RPMI-8226 7.52 µM | SF-295 5.32 µM | SF-539 2.41 µM | SK-MEL-28 10.7 µM | SK-MEL-5 3.07 µM | TK-10 28.8 µM

N#CSCc1cccc(Nc2cc(=O)[nH]c(=O)[nH]2)c1
inactive: A498 > 100 µM | HOP-92 14.8 µM | Hs-578T 46.8 µM | IGROV-1 > 100 µM | K562 30.5 µM | MCF7 7.23 µM | MDA-MB-231 > 100 µM | MDA-MB-435 > 100 µM | NCI-H460 > 100 µM | NCI-H522 39.7 µM | OVCAR-5 > 100 µM | OVCAR-8 72.1 µM | RPMI-8226 47.9 µM | SF-295 > 100 µM | SF-539 33 µM | SK-MEL-28 57.8 µM | SK-MEL-5 26.9 µM | TK-10 > 100 µM

Cc1nc(N)c(-c2ccccc2)s1
inactive: A498 > 32.4 µM | CCRF-CEM 36.5 µM | HOP-92 > 100 µM | IGROV-1 > 78.2 µM | K562 > 70.5 µM | NCI-H460 51.1 µM | NCI-H522 42.7 µM | OVCAR-5 > 100 µM | OVCAR-8 > 76.7 µM | RPMI-8226 > 49.1 µM | SF-295 32.7 µM | SF-539 70.8 µM | SK-MEL-28 > 100 µM | SK-MEL-5 43.5 µM | TK-10 > 100 µM

COC(=O)C1(C(=O)OC)N=C(C)OC1c1ccoc1 (configuration not stated)
inactive: A498 > 100 µM | CCRF-CEM > 100 µM | DU-145 > 100 µM | HOP-92 > 100 µM | K562 99.8 µM | MCF7 > 100 µM | MDA-MB-435 > 100 µM | NCI-H460 > 100 µM | OVCAR-5 > 100 µM | OVCAR-8 > 100 µM | RPMI-8226 > 100 µM | SF-295 > 100 µM | SK-MEL-28 > 100 µM | SK-MEL-5 > 100 µM | TK-10 > 100 µM

ClCCN(CC#CCCCC#CCN(CCCl)CCCl)CCCl
inactive: A498 12.3 µM | CCRF-CEM 2.3 µM | HOP-92 18.4 µM | IGROV-1 14.2 µM | K562 11 µM | MCF7 8.75 µM | NCI-H460 2.73 µM | NCI-H522 8.3 µM | OVCAR-5 11.7 µM | OVCAR-8 11 µM | RPMI-8226 2.79 µM | SF-295 11.6 µM | SF-539 8.36 µM | SK-MEL-28 19.1 µM | SK-MEL-5 11.3 µM | TK-10 22.8 µM

N#Cc1nn(C(N)=O)c(N)c1C#N
inactive: A498 > 100 µM | CCRF-CEM > 100 µM | DU-145 > 100 µM | Hs-578T > 100 µM | IGROV-1 > 100 µM | K562 > 100 µM | MCF7 > 100 µM | MDA-MB-231 > 100 µM | NCI-H460 > 100 µM | NCI-H522 > 100 µM | OVCAR-5 > 100 µM | OVCAR-8 > 100 µM | SF-295 > 100 µM | SF-539 > 100 µM | SK-MEL-28 > 100 µM | SK-MEL-5 > 100 µM | TK-10 > 100 µM

O=C1C(=O)N(c2ccc(Cl)cc2)C(=O)C(=O)C1c1nc2ccccc2o1
inactive: A498 > 100 µM | CCRF-CEM > 100 µM | HOP-92 > 100 µM | IGROV-1 > 100 µM | K562 > 100 µM | NCI-H460 > 100 µM | NCI-H522 > 100 µM | OVCAR-5 > 100 µM | OVCAR-8 > 100 µM | RPMI-8226 > 100 µM | SF-295 > 100 µM | SF-539 > 100 µM | SK-MEL-28 > 100 µM | SK-MEL-5 > 100 µM | TK-10 > 100 µM

Oc1ccc(O)c(Sc2nnc(CCCCCCCCc3nnc(Sc4cc(O)ccc4O)o3)o2)c1
inactive: A498 > 100 µM | DU-145 > 100 µM | HOP-92 24 µM | IGROV-1 96.8 µM | K562 39.8 µM | MCF7 33.8 µM | MDA-MB-231 > 100 µM | MDA-MB-435 18.2 µM | NCI-H460 72.9 µM | NCI-H522 23.8 µM | OVCAR-5 95.9 µM | RPMI-8226 23.1 µM | SF-295 > 100 µM | SK-MEL-28 > 100 µM | SK-MEL-5 > 100 µM | TK-10 > 100 µM
